The DC50 is the midpoint of the concentration-degradation curve. Low values mean degradation at low concentration, high ones degradation only at high concentration. The term Dmax denotes the greatest extent of degradation seen. A higher Dmax goes with a fuller loss of target.

The values that follow come from US20240165243A1, “EGFR DEGRADERS AND METHODS OF USE” (BeiGene Switzerland GmbH, priority 2021, published 2024).

For assay [1], the system named is EGFR (Del19/T790M/C797S). Kind of assay: Cell degradation HTRF assay, BaF3-DTC cells. The note with it: 16 h treatment; for DC50: HTRF; for DTC Dmax (%): maximum percentage of degradation. Format: cell-based. On the procedure:
(§1) Cell Degradation of Example 1-28
(§2) BaF3-LTC (L858R/T790M/C797S) and BaF3-DTC (Del19/T790M/C797S) cells are treated with compounds diluted in 0.2% DMSO cell culture medium and incubate for 16 h, 37° C., 5% CO2. The final concentration of compounds in all assay is start with 10 uM, 4-fold dilution, total 8 doses were included.
(§3) After 16 h treatment, add HTRF lysis buffer to each well; seal the plate and incubate 1 hour at room temperature on a plate shaker; Once the cells are lysed, 16 μL of cell lysate are transferred to a PE 384-well HTRF detection plate; 4 μL of pre-mixed HTRF antibodies are added to each well; Cover the plate with a plate sealer, spin 1000 rpm for 1 min, Incubate overnight at room temperature; Read on BMG PheraStar with HTRF protocol (337 nm-665 nm-620 nm). The inhibition (degradation) percentage of the compound was calculated by the following equation:
(§4) Inhibition percentage of Compound=100−100×(Signal−low control)/(High control−low control), wherein signal=each test compound group.
(§5) High control=Cell group with added DMSO and without compound, indicating microplate readings without EGFR degradation;
(§6) Dmax is the maximum percentage of inhibition (degradation).
(§7) The IC50 (DC50) value of a compound can be obtained by fitting the following equation
(§8) Y=Bottom+(TOP−Bottom)/(1+((C50/X)^hillslope))
(§9) Wherein, X and Y are known values, and IC50, Hillslope, Top and Bottom are the parameters obtained by fitting with software. Y is the inhibition percentage (calculated from the equation), X is the concentration of the compound; IC50 is the concentration of the compound when the 50% inhibition is reached. The smaller the IC50 value is, the stronger the inhibitory ability of the compound is. Vice versa, the higher the IC50 value is, the weaker the ability the inhibitory ability of the compound is; Hillslope represents the slope of the fitted curve, generally around 1*; Bottom represents the minimum value of the curve obtained by data fitting, which is generally 000±20%; Top represents the maximum value of the curve obtained by data fitting, which is generally 100%±20%. The experimental data were fitted by calculating and analyzing with Dotmatics data analysis software. When Dmax<50%, DC50 will be automatically assigned as larger than […].
For orientation: Time-resolved FRET reads energy transfer from a long-lived donor to a nearby acceptor.

Assay [2] has as its target EGFR (L858R/T790M/C797S) (Homo sapiens, UniProt P00533, C797S/L858R/T790M). Put plainly: Cell degradation HTRF assay, BaF3-LTC cells. Format: cell-based. Also noted: expressed in transfected cells; host or cells: BaF3-LTC. The note with it: 16 h treatment; for DC50: HTRF; for Dmax: maximum percentage of degradation. On the procedure: as §1, §2, §3, §4, §5, §6, §7, §8, §9

Chain of EGFR (L858R/T790M/C797S) (P00533 25-1210 T790M/C797S/L858R): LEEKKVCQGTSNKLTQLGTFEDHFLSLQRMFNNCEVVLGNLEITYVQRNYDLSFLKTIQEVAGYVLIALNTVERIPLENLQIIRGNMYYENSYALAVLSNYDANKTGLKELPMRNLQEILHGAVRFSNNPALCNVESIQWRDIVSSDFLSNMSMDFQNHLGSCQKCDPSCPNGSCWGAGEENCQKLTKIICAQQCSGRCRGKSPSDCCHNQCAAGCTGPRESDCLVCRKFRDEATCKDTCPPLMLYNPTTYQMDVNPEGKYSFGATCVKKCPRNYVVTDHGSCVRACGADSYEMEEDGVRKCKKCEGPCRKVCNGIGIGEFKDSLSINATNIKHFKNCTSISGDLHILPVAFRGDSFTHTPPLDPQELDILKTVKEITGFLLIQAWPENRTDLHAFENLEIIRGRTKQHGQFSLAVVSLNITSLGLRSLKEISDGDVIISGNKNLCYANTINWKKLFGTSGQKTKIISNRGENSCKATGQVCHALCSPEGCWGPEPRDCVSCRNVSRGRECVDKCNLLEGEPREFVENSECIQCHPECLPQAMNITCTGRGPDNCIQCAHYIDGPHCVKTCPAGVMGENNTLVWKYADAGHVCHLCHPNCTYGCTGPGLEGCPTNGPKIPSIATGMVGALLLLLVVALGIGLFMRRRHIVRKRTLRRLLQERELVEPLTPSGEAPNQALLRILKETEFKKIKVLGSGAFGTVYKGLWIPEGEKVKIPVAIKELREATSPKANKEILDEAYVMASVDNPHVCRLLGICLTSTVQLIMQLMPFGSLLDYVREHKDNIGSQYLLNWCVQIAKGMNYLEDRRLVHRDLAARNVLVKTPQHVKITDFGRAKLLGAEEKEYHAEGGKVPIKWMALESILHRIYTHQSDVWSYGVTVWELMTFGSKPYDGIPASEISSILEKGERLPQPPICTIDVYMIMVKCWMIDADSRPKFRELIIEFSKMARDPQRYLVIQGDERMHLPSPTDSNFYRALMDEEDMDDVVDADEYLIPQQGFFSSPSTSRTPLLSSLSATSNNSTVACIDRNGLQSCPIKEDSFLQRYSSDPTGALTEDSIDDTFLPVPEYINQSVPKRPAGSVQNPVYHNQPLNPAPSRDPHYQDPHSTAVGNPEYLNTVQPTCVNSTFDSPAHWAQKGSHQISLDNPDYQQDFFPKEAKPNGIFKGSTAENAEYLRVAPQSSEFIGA

For the compound `CCc1cc(Nc2ncc(Br)c(Nc3cnc4ccccc4c3P(C)(C)=O)n2)c(OC)cc1N1CCC(N2CCN(C(=O)[C@H]3C[C@H](N(C)c4cc(F)c(C5CCC(=O)NC5=O)c(F)c4)C3)CC2)CC1` (stereo partly drawn) [Example 18, 3-(4-(((1r,3r)-3-(4-(1-(4-((5-bromo-4-((4-(dimethylphosphoryl)quinolin-3-yl)amino)pyrimidin-2-yl)amino)-2-ethyl-5-methoxyphenyl)piperidin-4-yl)piperazine-1-carbonyl)cyclobutyl)(methyl)amino)-2,6-difluorophenyl)piperidine-2,6-dione], in assay [1], it took 3.95 nM to reach half-maximal degradation (DC50) and the “DTC Dmax (%)” value is listed as 97.59%. In assay [2], this compound gave a half-maximal degradation concentration (DC50) of 14.6 nM and a Dmax of 90.7%.
Turning to `CCc1cc(Nc2ncc(Br)c(Nc3cnc4ccccc4c3P(C)(C)=O)n2)c(OC)cc1N1CCC(N2CCN(C(=O)C3CN(c4cc(F)c(C5CCC(=O)NC5=O)c(F)c4)C3)CC2)CC1` (stereo not drawn) [Example 20, 3-(4-(3-(4-(1-(4-((5-bromo-4-((4-(dimethylphosphoryl)quinolin-3-yl)amino)pyrimidin-2-yl)amino)-2-ethyl-5-methoxyphenyl)piperidin-4-yl)piperazine-1-carbonyl)azetidin-1-yl)-2,6-difluorophenyl)piperidine-2,6-dione], in assay [1], the 50% degradation concentration (DC50) came to 4.65 nM and the “DTC Dmax (%)” value was 96.7%. In assay [2], this compound had a 50% degradation concentration (DC50) of 19.5 nM and a Dmax of 89.5%.
With `CCc1cc(Nc2ncc(Br)c(Nc3cnc4c(C)cccc4c3P(C)(C)=O)n2)c(OC)cc1N1CCC(N2CCN(CCc3cc(F)c(C4CCC(=O)NC4=O)c(F)c3)CC2)CC1` (stereo not drawn) [Example 10, 3-(4-(2-(4-(1-(4-((5-bromo-4-((4-(dimethylphosphoryl)-8-methylquinolin-3-yl)amino)pyrimidin-2-yl)amino)-2-ethyl-5-methoxyphenyl)piperidin-4-yl)piperazin-1-yl)ethyl)-2,6-difluorophenyl)piperidine-2,6-dione], in assay [1], the DC50 was determined as 24.8 nM and the “DTC Dmax (%)” value is given as 88.58%. In assay [2], this compound had a 50% degradation concentration (DC50) of 219 nM and a Dmax of 88.4%.
In the case of `CCc1cc(Nc2ncc(Br)c(Nc3cnc4ccccc4c3P(C)(C)=O)n2)c(OC)cc1N1CCC(N2CCN(C(=O)C3CCN(c4ccc5c(c4)n(C)c(=O)n5C4CCC(=O)NC4=O)CC3)CC2)CC1` (stereo not drawn) [Example 15, 3-(5-(4-(4-(1-(4-((5-bromo-4-((4-(dimethylphosphoryl)quinolin-3-yl)amino)pyrimidin-2-yl)amino)-2-ethyl-5-methoxyphenyl)piperidin-4-yl)piperazine-1-carbonyl)piperidin-1-yl)-3-methyl-2-oxo-2,3-dihydro-1H-benzo[d]imidazol-1-yl)piperidine-2,6-dione], in assay [1], it took 1.23 nM to reach half-maximal degradation (DC50) and the “DTC Dmax (%)” value is 94.57%. In assay [2], this compound had a DC50 of 3.23 nM and a Dmax of 86.4%.
Consider `CCc1cc(Nc2ncc(Br)c(Nc3cnc4ccccc4c3P(C)(C)=O)n2)c(OC)cc1N1CCC(N2CCN(CC3CN(c4cc(F)c(C5CCC(=O)NC5=O)c(F)c4)C3)CC2)CC1` (stereo not drawn) [Example 19, 3-(4-(3-((4-(1-(4-((5-bromo-4-((4-(dimethylphosphoryl)quinolin-3-yl)amino)pyrimidin-2-yl)amino)-2-ethyl-5-methoxyphenyl)piperidin-4-yl)piperazin-1-yl)methyl)azetidin-1-yl)-2,6-difluorophenyl)piperidine-2,6-dione], for which, in assay [1], the DC50 came to 4.24 nM and the “DTC Dmax (%)” value turned out to be 97.44%. In assay [2], this compound returned a DC50 of 8.02 nM and a maximal degradation (Dmax) of 89.4%.
As to `CCc1cc(Nc2ncc(Br)c(Nc3cnc4cccnc4c3P(C)(C)=O)n2)c(OC)cc1N1CCC(N2CCN(CCc3cc(F)c(C4CCC(=O)NC4=O)c(F)c3)CC2)CC1` (stereo not drawn) [Example 7, 3-(4-(2-(4-(1-(4-((5-bromo-4-((4-(dimethylphosphoryl)-1,5-naphthyridin-3-yl)amino)pyrimidin-2-yl)amino)-2-ethyl-5-methoxyphenyl)piperidin-4-yl)piperazin-1-yl)ethyl)-2,6-difluorophenyl)piperidine-2,6-dione], in assay [1], the DC50 worked out at 15.5 nM and the “DTC Dmax (%)” value came out at 93.86%. Moreover, in assay [2], the 50% degradation concentration (DC50) was 45.3 nM and the Dmax worked out at 82.7%.
As to `CCc1cc(Nc2ncc(Br)c(Nc3cnc4cccnc4c3P(C)(C)=O)n2)c(OC)cc1N1CCC(N2CCN(CCC3CCN(c4cc(F)c(C5CCC(=O)NC5=O)c(F)c4)CC3)CC2)CC1` (stereo not drawn) [Example 9, 3-(4-(4-(2-(4-(1-(4-((5-bromo-4-((4-(dimethylphosphoryl)-1,5-naphthyridin-3-yl)amino)pyrimidin-2-yl)amino)-2-ethyl-5-methoxyphenyl)piperidin-4-yl)piperazin-1-yl)ethyl)piperidin-1-yl)-2,6-difluorophenyl)piperidine-2,6-dione], in assay [1], half-maximal degradation (DC50) was put at 12.7 nM and the “DTC Dmax (%)” value stood at 96.14%. In addition, in assay [2], the 50% degradation concentration (DC50) stood at 29.3 nM and the greatest degradation seen (Dmax) was found to be 88%.
Turning to `CCc1cc(Nc2ncc(Br)c(Nc3cnc4ccccc4c3P(C)(C)=O)n2)c(OC)cc1N1CCC(N2CCN(CCC3CCN(c4cc(F)c(C5CCC(=O)NC5=O)c(F)c4)CC3)CC2)CC1` (stereo not drawn) [Example 1, 3-(4-(4-(2-(4-(1-(4-((5-bromo-4-((4-(dimethylphosphoryl)quinolin-3-yl)amino)pyrimidin-2-yl)amino)-2-ethyl-5-methoxyphenyl)piperidin-4-yl)piperazin-1-yl)ethyl)piperidin-1-yl)-2,6-difluorophenyl)piperidine-2,6-dione], in assay [1], the DC50 came out at 10.4 nM and the “DTC Dmax (%)” value was 96.55%. In assay [2], this compound had a half-maximal degradation concentration (DC50) of 25 nM and a Dmax of 90.7%.
For `CCc1cc(Nc2ncc(Br)c(Nc3cnc4ccccc4c3P(C)(C)=O)n2)c(OC)cc1N1CCC(N2CCN(CCc3cccc4nn(C5CCC(=O)NC5=O)cc34)CC2)CC1` (stereo not drawn) [Example 14, 3-(4-(2-(4-(1-(4-((5-bromo-4-((4-(dimethylphosphoryl)quinolin-3-yl)amino)pyrimidin-2-yl)amino)-2-ethyl-5-methoxyphenyl)piperidin-4-yl)piperazin-1-yl)ethyl)-2H-indazol-2-yl)piperidine-2,6-dione], in that order: 186 nM, 81.73%, 546 nM and 84.6%.
For `CCc1cc(Nc2ncc(Br)c(Nc3cnc4ccccc4c3P(C)(C)=O)n2)c(OC)cc1N1CCC(N2CCN(CCc3ccc(C4CCC(=O)NC4=O)c(F)c3)CC2)CC1` (stereo not drawn) [Example 2, 3-(4-(2-(4-(1-(4-((5-bromo-4-((4-(dimethylphosphoryl)quinolin-3-yl)amino)pyrimidin-2-yl)amino)-2-ethyl-5-methoxyphenyl)piperidin-4-yl)piperazin-1-yl)ethyl)-2-fluorophenyl)piperidine-2,6-dione], in assay [1], the DC50 was 18.5 nM and the “DTC Dmax (%)” value is reported as 86.75%. In assay [2], this compound registered a 50% degradation concentration (DC50) of 146 nM and a Dmax of 85%.
For the compound `CCc1cc(Nc2ncc(Br)c(Nc3cnc4ccccc4c3P(C)(C)=O)n2)c(OC)cc1N1CCC(N2CCN(C(=O)C3CCN(c4ccc5c(c4)C(C)(C)C(=O)N5C4CCC(=O)NC4=O)CC3)CC2)CC1` (stereo not drawn) [Example 17, 3-(5-(4-(4-(1-(4-((5-bromo-4-((4-(dimethylphosphoryl)quinolin-3-yl)amino)pyrimidin-2-yl)amino)-2-ethyl-5-methoxyphenyl)piperidin-4-yl)piperazine-1-carbonyl)piperidin-1-yl)-3,3-dimethyl-2-oxoindolin-1-yl)piperidine-2,6-dione], in assay [1], the 50% degradation concentration (DC50) stood at 1.94 nM and the “DTC Dmax (%)” value worked out at 96.58%. Further, in assay [2], the half-maximal degradation concentration (DC50) stood at 3.86 nM and the greatest degradation seen (Dmax) amounted to 92.5%.
Consider `CCc1cc(Nc2ncc(Br)c(Nc3cnc4ccccc4c3P(C)(C)=O)n2)c(OC)cc1N1CCC(N2CCN(CCc3cccc4c3cnn4C3CCC(=O)NC3=O)CC2)CC1` (stereo not drawn) [Example 12, 3-(4-(2-(4-(1-(4-((5-bromo-4-((4-(dimethylphosphoryl)quinolin-3-yl)amino)pyrimidin-2-yl)amino)-2-ethyl-5-methoxyphenyl)piperidin-4-yl)piperazin-1-yl)ethyl)-1H-indazol-1-yl)piperidine-2,6-dione], for which, in assay [1], the DC50 is 14.4 nM and the “DTC Dmax (%)” value worked out at 91.82%. In assay [2], this compound displayed a half-maximal degradation concentration (DC50) of 68.8 nM and a maximal degradation (Dmax) of 89.1%.
